The record followed here is US12005050B2, “Methods for preventing or treating H. pylori infection” (TENNOR THERAPEUTICS (SUZHOU) LIMITED, priority 2022, dated 2024).

The structures appear in SMILES notation.

The conditions of data set [1]: human, in vivo. How it is done:
The 40 patients were randomly allocated to four groups at a ratio of 1:1:1:1. […] The detection linear range was as below: • Compound I: Lower Limit Of Quantitation (LLOQ): 1.00 ng/mL; Upper Limit Of Quantitation (ULOQ): 1,000 ng/mL • Rabeprazole sodium: LLOQ: 2.00 ng/mL; […] […] Pharmacokinetics Evaluation Plasma drug concentrations of various groups at different time points were determined, including: arithmetic mean, standard deviation, minimum, median, maximum, geometric mean, coefficient of variation, and coefficient of geometric variation. The pharmacokinetic parameters calculated from the first and last administration were descriptively analyzed according to various trial groups, including: arithmetic mean, standard deviation, minimum value, median, maximum value, geometric mean, coefficient of variation, geometric coefficient of variation, etc. In addition, the accumulation index AUC0-tau, ss(D15)/AUC0-tau (D1) was calculated. […]

Another data set concerns Helicobacter pylori. In words: H. pylori eradication by 14C UBT test (Example 2). The format is in vivo. To be noted: BID × 14 day; for UBT results Negative / UBT results Positive: treatment group A: Compound I capsule 400 mg + rabeprazole sodium 20 mg + amoxicillin 1 g. The method, then: In this example, 80 patients that are positive for Helicobacter pylori infection were admitted to the trial. The 80 patients were randomly allocated to 5 groups at a ratio of 2:2:1:1:2, including 4 treatment groups and 1 control group, and the dosage regimen is shown in Table 4.
Patients were administered with the combination therapy daily according to the dosing regimen of the respective group from day 1 to day 14, and the last dose was administered in the morning of day 15. Pharmacokinetic blood samples were collected at the scheduled time point during the trial and patiented to a safety tolerance assessment and ^14C UBT test. All patients left the hospital after completing the safety tolerance assessment and PK blood collection on the 17th day (day 17), and returned to the research institution for follow-up visits from the 44th to 50th day (day 44-day 50). Follow-up of adverse events and laboratory abnormalities continued until the patients completely recovered or returned to baseline levels or stable states. Safety tolerance assessment, and ^14C UBT tests were performed to assess H. pylori eradication effects.
The administration regimen was as follows: • Group A, Group B and Control Group: • Twice per day, the combination therapy was administered orally within 30 mins after breakfast and dinner, respectively, and the combination therapy was administered for 14 days consecutively. On day 15, the last administration was provided within 30 mins after breakfast. Each patient was administered for 29 times in total. • Group C and Group D: • Three times per day, and two administrations were separated by about 8 hours.
Patients were examined with ^14C UBT test during the screening period (D-14˜D-2), baseline period (D-1), day 8 (D8), day 16 (D16) and days 44˜50 (D44˜D50). The test was done fasting before breakfast to determine the effects of H. pylori eradication in each group.
• Full Analysis Set (FAS): refers to all randomized patients who have been administered with the combination therapy of the present disclosure at least once; • Modified Intentionality Analysis Set (mITT): refers to all randomized patients who underwent a ^14C UBT test on days 28 to 34 after the last administration; • Protocol-compliant Set (PP): refers to patients who have not experienced major protocol violations: randomized and treated with more than 80% (including 80%) of the total amount of the drug expected to be used in the investigation, and who were tested for ^14C UBT on days 28 to 34 after the last administration; • Safety Analysis Set (SS): refers to the patients who have entered the trial and have been administered the combination therapy of the present disclosure at least once; • Pharmacokinetic Concentration Analysis Dataset (PKCS): refers to all enrolled patients who have been administered with the combination therapy of the present disclosure and had at least one PK concentration observation; • Pharmacokinetic Parameter Analysis Dataset (PKPS): Refers to all enrolled patients who have been administered with the combination therapy of the present disclosure and had at least one PK parameter observation data point. Demographic Analysis: • Demographic analysis was based on Full Analysis Set (FAS). Descriptive statistical analysis of all demographics (age, sex, weight, height, BMI, ethnicity, etc.) and baseline characteristics, based on the measurement of the last valid data before the administration of the combination therapy of the present disclosure. Evaluation of the Eradication Effect of Helicobacter pylori: • The eradication effect analysis was performed with the Full Analysis Set (FAS), based on the results of four ^14C UBT tests (negative or positive) in group A, group B, group C, and control groups at baseline, on day 8, day 16, and follow-up days 44 to 50, and three ^14C UBT test results (negative or positive) in group D at baseline, on day 8, and follow-up days 37 to 43. […]

A short description of data set [2]: Solubility of drug substance. In kind it is physicochemical.
Where [3] appears, read: Day 8 after administration, FAS N = 20.
[4] abbreviates: Day 8 after administration, mITT N = 19.
The mark [5] stands for this setting: Day 16 after administration, FAS N = 20.
The mark [6] stands for this setting: Day 16 after administration, mITT N = 19.
Where [7] appears, read: Follow up period (Day 44~Day 50), FAS N = 20.
[8] abbreviates: Follow up period (Day 44~Day 50), mITT N = 19.

Consider `CO[C@H]1/C=C/O[C@@]2(C)Oc3c(C)c(O)c4c(c3C2=O)C2=NC3(CCN(CCn5c([N+](=O)[O-])cnc5C)CC3)NC2=C(NC(=O)/C(C)=C\C=C\[C@H](C)[C@H](O)[C@@H](C)[C@@H](O)[C@@H](C)[C@H](OC(C)=O)[C@@H]1C)C4=O` [Compound I, 4-Deoxy-3,4-[2-spiro-[1-[2-(2-methyl-5-nitro-imidazol-1-yl)ethyl]-piperidin-4-yl]]-(1H)-imidazo-(2,5-dihydro)rifamycin], for which, in data set [1], the “Effect of rabeprazole and amoxicillin on the pharmacokinetic profile of Compound I” value is “no significant effect”. In addition, the “UBT results Negative” value is on record as 18 (90.0) n(%) in the data set with Helicobacter pylori (setting [3]); 18 (94.7) n(%) in the data set with Helicobacter pylori (setting [4]); 18 (90.0) n(%) with Helicobacter pylori (setting [5]); 18 (94.7) n(%) with Helicobacter pylori (setting [6]); 18 (90.0) n(%) with Helicobacter pylori (setting [7]); 18 (94.7) n(%) in the data set with Helicobacter pylori (setting [8]). Further, the “UBT results Positive” value was 1 (5.0) n(%) with Helicobacter pylori (setting [3]); 1 (5.3) n(%) in the data set on Helicobacter pylori (setting [4]); 1 (5.0) n(%) in the data set on Helicobacter pylori (setting [5]); 1 (5.3) n(%) with Helicobacter pylori (setting [6]); 1 (5.0) n(%) with Helicobacter pylori (setting [7]); 1 (5.3) n(%) in the data set on Helicobacter pylori (setting [8]). For the same compound, the “Eradication rate (mITT set) of Helicobacter pylori” value with Helicobacter pylori (treatment group A: combination therapy of compound I, rabeprazole sodium and amoxicillin) is on record as 94.7%. Besides, the “Solubility of drug substance” value in data set [2] is “low solubility”.
